Laboratory results as given in ChEMBL document CHEMBL5316286, “Inhibition of the Ubiquitin Transfer Cascade by a Peptidomimetic Foldamer Mimicking the E2 N-Terminal Helix” (J Med Chem, 2023).
The source made the active and inactive calls. The rule behind the calls is not given here. *1 amine or outer side, *2 acyl side, *3 side chain or, on linkers, in order; H or OH if unused. Where a SMILES comes first, the peptide text is derived from it. [ ]: non-standard residue; d: D form. X1 = N=C(N)CCCC[C@H](N[*:1])C(=O)[*:2]

Assays:
[1] = target: T1, E3 ubiquitin-protein ligase CHIP (Homo sapiens) (UniProt Q9UNE7); test: Inhibition of N-terminal Flag-tagged full-length U-box E3 CHIP (unknown origin) self-ubiquitination expressed in Escherichia coli BL21 (DE3) cells assessed as inhibition of Uba1-UbcH5B-CHIP cascade at upto 50 uM preincubated for 30 mins followed by ubiquitin addition measured after 1 hr by Western blot analysis; conditions: time 90.0 min
T1 sequence (whole entry): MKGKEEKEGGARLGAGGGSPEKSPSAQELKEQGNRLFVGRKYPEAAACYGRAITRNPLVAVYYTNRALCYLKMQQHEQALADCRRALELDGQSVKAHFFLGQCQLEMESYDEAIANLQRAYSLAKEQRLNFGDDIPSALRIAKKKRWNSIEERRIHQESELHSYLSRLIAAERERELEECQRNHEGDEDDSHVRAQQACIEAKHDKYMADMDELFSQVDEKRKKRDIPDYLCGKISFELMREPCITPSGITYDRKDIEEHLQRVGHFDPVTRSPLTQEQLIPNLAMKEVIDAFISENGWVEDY

[2] = target: T2, Ubiquitin-like modifier-activating enzyme 1 (Homo sapiens) (UniProt P22314); test: Binding affinity to His-tagged Uba1 (unknown origin)-coated Ni-NTA beads assessed as measuring green fluorescence at 10 uM incubated for 30 mins by laser scanning microscopy
T2 sequence (whole entry): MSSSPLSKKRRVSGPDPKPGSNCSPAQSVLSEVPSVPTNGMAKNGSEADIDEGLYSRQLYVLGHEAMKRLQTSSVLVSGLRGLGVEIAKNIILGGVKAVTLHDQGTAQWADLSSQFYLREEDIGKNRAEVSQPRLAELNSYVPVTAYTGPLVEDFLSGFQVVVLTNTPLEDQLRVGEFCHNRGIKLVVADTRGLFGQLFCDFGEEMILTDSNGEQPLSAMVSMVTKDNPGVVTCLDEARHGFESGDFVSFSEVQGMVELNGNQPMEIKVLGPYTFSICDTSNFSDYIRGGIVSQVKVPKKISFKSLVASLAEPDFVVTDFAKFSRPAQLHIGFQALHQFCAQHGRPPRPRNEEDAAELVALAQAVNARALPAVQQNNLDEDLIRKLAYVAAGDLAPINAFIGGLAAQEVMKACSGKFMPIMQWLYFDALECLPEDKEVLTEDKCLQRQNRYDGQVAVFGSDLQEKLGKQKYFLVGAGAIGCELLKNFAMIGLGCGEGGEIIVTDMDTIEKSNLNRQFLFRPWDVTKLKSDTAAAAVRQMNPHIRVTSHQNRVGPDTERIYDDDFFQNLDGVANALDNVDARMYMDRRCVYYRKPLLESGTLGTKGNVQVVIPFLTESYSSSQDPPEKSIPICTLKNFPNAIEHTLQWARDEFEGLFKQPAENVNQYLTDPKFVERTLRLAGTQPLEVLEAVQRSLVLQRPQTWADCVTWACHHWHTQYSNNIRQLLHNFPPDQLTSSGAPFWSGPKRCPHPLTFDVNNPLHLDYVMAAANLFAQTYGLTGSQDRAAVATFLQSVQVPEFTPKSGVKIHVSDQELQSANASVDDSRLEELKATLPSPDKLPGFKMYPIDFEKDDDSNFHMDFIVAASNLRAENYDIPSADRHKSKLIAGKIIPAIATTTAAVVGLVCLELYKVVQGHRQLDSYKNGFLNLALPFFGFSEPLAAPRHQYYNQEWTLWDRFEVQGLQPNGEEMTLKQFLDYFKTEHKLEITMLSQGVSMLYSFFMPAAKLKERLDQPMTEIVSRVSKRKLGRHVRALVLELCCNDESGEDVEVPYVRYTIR

[3] = target: T1, E3 ubiquitin-protein ligase CHIP (Homo sapiens); test: Inhibition of N-terminal Flag-tagged full-length U-box E3 CHIP (unknown origin)-mediated CDK4 monoubiquitination expressed in Escherichia coli BL21 (DE3) cells upto 50 uM preincubated for 30 mins followed by ubiquitin addition measured after 1 hr by Western blot analysis; conditions: time 90.0 min
HEK293 = test: Cytotoxicity against HEK293 cells assessed as cell membrane disruption upto 100 uM incubated for 24 hrs by DAPI/PI staining based confocal microscopy; format: toxicity; conditions: human, hek293, 24 h
[4] = target: Cyclin-dependent kinase 4 (Homo sapiens) (UniProt P11802); test: Inhibition of CDK4 ubiquitination in HEK293 cells overexpressing CHIP upto 50 uM by Western blot analysis; format: cell-based
Homo sapiens = organism: Homo sapiens; test: Disruption of Uba1/UbcH5B (unknown origin) interaction assessed as inhibition of UbcH5B-ubiquitin conjugate formation at 50 uM preincubated for 30 mins followed by ubiquitin addition measured after 30 mins by Western blot analysis
[5] = target: T1, E3 ubiquitin-protein ligase CHIP (Homo sapiens); test: Inhibition of CHIP-mediated CDK4 ubiquitination in HEK293T cells upto 50 uM preincubated for 14 hrs followed by MG132 addition measured after 12 hrs by Western blot analysis; format: cell-based; conditions: time 26.0 hrs
[6] = Stability of compound in human serum at 1 mg incubated for 24 hrs by HPLC analysis; format: ADME, cell-free
[7] = Stability of compound in ammonium bicarbonate buffer at pH 7.8 at 0.1 mg/ml incubated for 24 hrs by HPLC/MS analysis; format: physicochemical; conditions: pH 7.8, 24 h
Erythrocyte = test: Hemolytic activity in human RBC assessed as cell membrane disruption upto 400 uM incubated for 1 hr by microplate reader analysis; format: toxicity, cell-based
[8] = target: T1, E3 ubiquitin-protein ligase CHIP (Homo sapiens); test: (§1) Inhibition of N-terminal Flag-tagged full-length U-box E3 CHIP (unknown origin) self-ubiquitination expressed in Escherichia coli BL21 (DE3) cells assessed as decrease in polyubiquitination at 50 uM preincubated for 30 mins followed by ubiquitin addition measured after 1 hr by Western blot analysis; conditions: time 90.0 min
[9] = Aggregation propensity of the compound in D2O assessed as signal shift at 1 mM measured after 10 days by 1H-NMR analysis; format: physicochemical; conditions: 240 h, 1000 µM, time 10 day
[10] = Aggregation propensity of the compound in D2O assessed as signal shift at 1 mM measured for 24 hrs by 1H-NMR analysis; format: physicochemical; conditions: 1000 µM
[11] = target: T1, E3 ubiquitin-protein ligase CHIP (Homo sapiens); test: Inhibition of CHIP (unknown origin) self-ubiquitination upto 50 uM in presence of ubiquitin-preloaded UbcH5B by Western blot analysis
[12] = target: T1, E3 ubiquitin-protein ligase CHIP (Homo sapiens); test: as §1, with “polyubiquitination at upto 50 uM” for “polyubiquitination at 50 uM”; conditions: time 90.0 min

Chain of Cyclin-dependent kinase 4 (Homo sapiens) (P11802 whole entry): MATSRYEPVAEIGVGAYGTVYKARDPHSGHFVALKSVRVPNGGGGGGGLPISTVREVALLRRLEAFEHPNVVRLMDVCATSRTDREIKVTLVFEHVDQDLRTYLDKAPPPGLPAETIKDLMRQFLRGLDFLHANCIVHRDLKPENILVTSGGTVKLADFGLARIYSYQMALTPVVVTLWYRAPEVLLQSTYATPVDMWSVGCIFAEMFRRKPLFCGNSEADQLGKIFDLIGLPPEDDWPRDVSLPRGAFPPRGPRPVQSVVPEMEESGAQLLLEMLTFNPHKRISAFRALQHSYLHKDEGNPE

Which results are given for `COc1ccc(S(=O)(=O)N(CC(=O)N[C@@H](CCCCN)CN(CC(=O)N[C@@H](CCCCN)CN(CC(=O)N[C@@H](CC(C)C)CN(CC(=O)N[C@@H](CCCCN)CN(CC(=O)N[C@@H](CC(C)C)CN(CC(=O)N[C@@H](CCCCN)CN(CC(=O)N[C@@H](CC(C)C)CN(CC(N)=O)S(=O)(=O)CCN)S(C)(=O)=O)S(=O)(=O)CC(C)C)S(C)(=O)=O)S(=O)(=O)CCN)S(=O)(=O)CCN)S(C)(=O)=O)C[C@H](CCCCN)NC(C)=O)cc1`?
inhibition [1]: inactive; Activity [2]: inactive

With `COc1ccc(S(=O)(=O)N(CC(=O)N[C@@H]2CCCCNC(=O)c3ccc(cc3)C(=O)NCCCC[C@H](CN(CC(=O)N[C@H](CCCCN)CN(CC(=O)N[C@H](CC(C)C)CN(CC(=O)N[C@H](CCCCN)CN(CC(=O)N[C@H](CC(C)C)CN(CC(N)=O)S(=O)(=O)CCN)S(C)(=O)=O)S(=O)(=O)CC(C)C)S(C)(=O)=O)S(C)(=O)=O)NC(=O)CN(S(=O)(=O)CCN)C[C@@H](CCCCN)NC(=O)CN(S(C)(=O)=O)C2)C[C@@H](CCCCN)NC(C)=O)cc1` as the molecule, how does the inhibition [3] read?
The inhibition was “Active”.

And the Activity (HEK293)?
Its Activity is “Non-Toxic”.

What about the inhibition [4] of the same molecule?
Its inhibition is “Active”.

What about the inhibition (Homo sapiens) of the same molecule?
Its inhibition is “Active”.

What about the inhibition [5] of the same molecule?
The inhibition was “Active”.

What about the Stability [6] of the same molecule?
Its Stability is “Stable”.

What about the Stability [7] of the same molecule?
Its Stability is “Stable”.

And the Activity (Erythrocyte)?
The Activity was “Non-Toxic”.

And the inhibition [8]?
Its inhibition is “Active”.

What about the Activity [9] of the same molecule?
Its Activity is “Active”.

And the Activity [10]?
The Activity was “Not Active”.

And the inhibition [11]?
Its inhibition is “inactive”.

Which inhibition [3] does the source give for `CC(=O)N[C@H](CO)CN(CC(=O)N[C@H](C)CN(CC(=O)N[C@H](CCCCN)CN(CC(=O)N[C@H](CC(C)C)CN(CC(=O)N[C@H](CCCCN)CN(CC(=O)N[C@@H]1CCCCNC(=O)c2ccc(cc2)C(=O)NCCCC[C@H](CN(CC(N)=O)S(C)(=O)=O)NC(=O)CN(S(=O)(=O)CC(C)C)C[C@@H](CCC(=O)O)NC(=O)CN(S(C)(=O)=O)C1)S(C)(=O)=O)S(=O)(=O)CCN)S(=O)(=O)CCN)S(=O)(=O)CC(C)C)S(=O)(=O)CC(C)C` here?
Its inhibition is “inactive”.

And the inhibition [12]?
Its inhibition is “inactive”.

What does the source list for `CC(=O)N[C@H](CO)CN(CC(=O)N[C@@H]1CCCCNC(=O)c2ccc(cc2)C(=O)NCCCC[C@H](CN(CC(=O)N[C@H](CCCCN)CN(CC(=O)N[C@H](CC(C)C)CN(CC(=O)N[C@H](CCC(=O)O)CN(CC(=O)N[C@H](CCCCN)CN(CC(N)=O)S(=O)(=O)CCN)S(=O)(=O)CC(C)C)S(=O)(=O)CCN)S(C)(=O)=O)S(C)(=O)=O)NC(=O)CN(S(=O)(=O)CCN)C[C@@H](CCCCN)NC(=O)CN(S(C)(=O)=O)C1)S(=O)(=O)CC(C)C`?
inhibition [3]: inactive; inhibition [12]: inactive

What does the source list for `CC[C@H](C)[C@H](NC(=O)[C@H](CCC(=O)O)NC(=O)[C@H](CCCCN)NC(=O)[C@H](CCSC)NC(=O)[C@@H](NC(=O)[C@H](CCCNC(=N)N)NC(=O)[C@H](CCCCN)NC(=O)[C@H](C)NC(=O)[C@H](CCCCC(=N)N)NC(=O)[C@H](CO)NC(=O)[C@H](CO)NC(C)=O)[C@@H](C)CC)C(=O)N[C@@H](CCC(N)=O)C(=O)N[C@@H](C)C(=O)N[C@H](C(=O)N[C@@H](CCCCN)C(=O)N[C@@H](CC(=O)O)C(N)=O)C(C)C` (Ac-SS[X1]AKRIMKEIQAVKD-NH2)?
Stability [6]: Stable; Stability [7]: Stable

With `CC(=O)N[C@H](CO)CN(CC(=O)N[C@H](C)CN(CC(=O)N[C@H](CCCCN)CN(CC(=O)N[C@H](CC(C)C)CN(CC(=O)N[C@H](CCCCN)CN(CC(=O)N[C@H](CC(C)C)CN(CC(=O)N[C@H](CCC(=O)O)CN(CC(=O)N[C@H](CCCCN)CN(CC(N)=O)S(=O)(=O)CCN)S(=O)(=O)CC(C)C)S(=O)(=O)CCN)S(C)(=O)=O)S(=O)(=O)CCN)S(=O)(=O)CCN)S(=O)(=O)CC(C)C)S(=O)(=O)CC(C)C` as the molecule, how does the inhibition [1] read?
The inhibition was “inactive”.

Which results are given for `COc1ccc(S(=O)(=O)N(CC(=O)N[C@H](CCCCN)CN(CC(=O)N[C@H](CCCCN)CN(CC(=O)N[C@H](CC(C)C)CN(CC(=O)N[C@H](CCCCN)CN(CC(=O)N[C@@H]2CCCCNC(=O)c3ccc(cc3)C(=O)NCCCC[C@H](CN(CC(N)=O)S(C)(=O)=O)NC(=O)CN(S(C)(=O)=O)C[C@@H](CCCCN)NC(=O)CN(S(C)(=O)=O)C2)S(C)(=O)=O)S(=O)(=O)CCN)S(=O)(=O)CCN)S(C)(=O)=O)C[C@@H](CCCCN)NC(C)=O)cc1`?
inhibition [3]: inactive; inhibition [8]: Active

For `CC(=O)N[C@H](CO)CN(CC(=O)N[C@H](C)CN(CC(=O)N[C@H](CCCCN)CN(CC(=O)N[C@@H]1CCCCNC(=O)c2ccc(cc2)C(=O)NCCCC[C@H](CN(CC(=O)N[C@H](CCC(=O)O)CN(CC(=O)N[C@H](CCCCN)CN(CC(N)=O)S(=O)(=O)CCN)S(=O)(=O)CC(C)C)S(C)(=O)=O)NC(=O)CN(S(C)(=O)=O)C[C@@H](CCCCN)NC(=O)CN(S(C)(=O)=O)C1)S(=O)(=O)CCN)S(=O)(=O)CC(C)C)S(=O)(=O)CC(C)C`, which inhibition [3] is on record?
The inhibition was “inactive”.

What about the inhibition [12] of the same molecule?
The inhibition was “inactive”.
